US20260317344A1, “EGFR INHIBITORS FOR TREATING DISEASE” (BLOSSOMHILL THERAPEUTICS, INC., priority 2023, published 2026)

Legend:
[1] = test system: BaF3 cells with engineered EGFR L858R/C797S; experiment: 3-Day CellTiter Glo (CTG) cell proliferation assay, BaF3 EGFR L858R/C797S; type: cell-based; details: Mus musculus, 3-day CTG proliferation, 72 hours
Summary of the method: (§1)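 Luminescent ATP read-out (CellTiter-Glo 2.0) after 72 h compound exposure gives IC50 values. BaF3 transgenic cells, one thousand per well, received a nine-dose series and were kept at 37 °C under 5% CO2.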

EGFR (D746-750) = EGFR (D746-750) (Homo sapiens, UniProt P00533, DEL746-750); experiment: HotSpot radiometric kinase assay, inhibition of EGFR 746-750 mutant; type: biochemical; details: 33P ATP, room temperature, 120 m
Summary of the method: (§2)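 Kinase/substrate pairs in 20 mM HEPES pH 7.5, 10 mM MgCl2, 1 mM EGTA, 0.02% Brij35, 0.02 mg/ml BSA, 0.1 mM Na3VO4, 2 mM DTT, 1% DMSO, preincubated ~20 min with compound. Reaction started with ATP/33P-ATP ([…]), run 120 min at room temperature; phosphorylation read by P81 filter binding, IC50 from curve fits.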

[2] = test system: BaF3 cells with engineered EGFR d746-750/T790M; experiment: 3-Day CellTiter Glo (CTG) cell proliferation assay, BaF3 EGFR d746-750/T790M; type: cell-based; details: Mus musculus; BaF3 EGFR d746-750/T790M cells, 3-day CTG proliferation, 72 hours
Summary of the method: as §1

[3] = test system: BaF3 cells with engineered EGFR L858R/T790M/C797S; experiment: 3-Day CellTiter Glo (CTG) cell proliferation assay, BaF3 EGFR L858R/T790M/C797S; type: cell-based; details: Mus musculus, 3-day CTG proliferation, 72 hours
Summary of the method: as §1

EGFR (D746-750/C797S) = EGFR (D746-750/C797S) (Homo sapiens, UniProt P00533, C797S/DEL746-750); experiment: HotSpot radiometric kinase assay, inhibition of EGFR 746-750/C797S mutant; type: biochemical; details: 33P ATP, room temperature, 120 m
Summary of the method: as §2

EGFR (L858R/T790M/C797S) = EGFR (L858R/T790M/C797S) (Homo sapiens, UniProt P00533, C797S/L858R/T790M); experiment: HotSpot radiometric kinase assay, inhibition of EGFR L858R/T790M/C797S mutant; type: biochemical; details: 33P ATP, room temperature, 120 m
Summary of the method: as §2

HCC827 cells = experiment: 5-Day CellTiter Glo (CTG) cell proliferation assay, HCC827; type: cell-based; details: Homo sapiens; HCC827 cells (d746-750 EGFR), 5-day CTG proliferation, 120 hours; read-out: HCC827 IC50
Summary of the method: (§3)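 Luminescent ATP signal (CellTiter-Glo 2.0) after 120 hours of compound exposure gave IC50 values. PC-9 and HCC827 harbour EGFR d746-750; NCI-H1975 harbours L858R/T790M.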

EGFR (D770_N771insNPG) = EGFR (D770_N771insNPG) (Homo sapiens, UniProt P00533, INS770NPG); experiment: HotSpot radiometric kinase assay, inhibition of EGFR (D770_N771insNPG) mutant; type: biochemical; details: 33P ATP, room temperature, 120 m
Summary of the method: as §2

PC-9 cells = experiment: 5-Day CellTiter Glo (CTG) cell proliferation assay, PC-9; type: cell-based; details: Homo sapiens; PC-9 cells (d746-750 EGFR), 5-day CTG proliferation, 120 hours; read-out: PC-9 IC50
Summary of the method: as §3

[4] = biological target: T1, pEGFR, PC-9 cells (d746-750 EGFR) (Homo sapiens, UniProt P00533, DEL746-750); experiment: Cellular EGFR phosphorylation assay (LANCE Ultra TR-FRET) in PC-9 cells; type: cell-based; details: 4 hours at 37° C., read-out: PC-9 pEGFR IC50
T1 construct: pEGFR (Tyr1068) TR-FRET
Summary of the method: (§4)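 4 h compound treatment at 37 °C, 9-point 3-fold titration. EGF (40 ng/mL, final 10 min) in A431 only. Tyr1068 phosphorylation measured by TR-FRET and IC50 fitted.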

[5] = biological target: T2, pEGFR, A431 cells (wildtype EGFR) (Homo sapiens, UniProt P00533); experiment: Cellular EGFR phosphorylation assay (LANCE Ultra TR-FRET) in A431 cells; type: cell-based; details: 4 hours at 37° C., 40 ng/mL EGF for the final 10 minutes, read-out: A431 pEGFR IC50
T2 construct: pEGFR (Tyr1068) TR-FRET
Summary of the method: as §4

[6] = biological target: T3, pEGFR, NCI-H1975 cells (L858R/T790M EGFR) (Homo sapiens, UniProt P00533, L858R/T790M); experiment: Cellular EGFR phosphorylation assay (LANCE Ultra TR-FRET) in NCI-H1975 cells; type: cell-based; details: 4 hours at 37° C., read-out: H1975 pEGFR IC50
T3 construct: pEGFR (Tyr1068) TR-FRET
Summary of the method: as §4

NCI-H1975 cells = experiment: 5-Day CellTiter Glo (CTG) cell proliferation assay, NCI-H1975; type: cell-based; details: Homo sapiens; NCI-H1975 cells (L858R/T790M EGFR), 5-day CTG proliferation, 120 hours; read-out: H1975 IC50
Summary of the method: as §3

Chain of EGFR (D746-750/C797S) (P00533 with tags, fused parts or gaps DEL746-750/C797S): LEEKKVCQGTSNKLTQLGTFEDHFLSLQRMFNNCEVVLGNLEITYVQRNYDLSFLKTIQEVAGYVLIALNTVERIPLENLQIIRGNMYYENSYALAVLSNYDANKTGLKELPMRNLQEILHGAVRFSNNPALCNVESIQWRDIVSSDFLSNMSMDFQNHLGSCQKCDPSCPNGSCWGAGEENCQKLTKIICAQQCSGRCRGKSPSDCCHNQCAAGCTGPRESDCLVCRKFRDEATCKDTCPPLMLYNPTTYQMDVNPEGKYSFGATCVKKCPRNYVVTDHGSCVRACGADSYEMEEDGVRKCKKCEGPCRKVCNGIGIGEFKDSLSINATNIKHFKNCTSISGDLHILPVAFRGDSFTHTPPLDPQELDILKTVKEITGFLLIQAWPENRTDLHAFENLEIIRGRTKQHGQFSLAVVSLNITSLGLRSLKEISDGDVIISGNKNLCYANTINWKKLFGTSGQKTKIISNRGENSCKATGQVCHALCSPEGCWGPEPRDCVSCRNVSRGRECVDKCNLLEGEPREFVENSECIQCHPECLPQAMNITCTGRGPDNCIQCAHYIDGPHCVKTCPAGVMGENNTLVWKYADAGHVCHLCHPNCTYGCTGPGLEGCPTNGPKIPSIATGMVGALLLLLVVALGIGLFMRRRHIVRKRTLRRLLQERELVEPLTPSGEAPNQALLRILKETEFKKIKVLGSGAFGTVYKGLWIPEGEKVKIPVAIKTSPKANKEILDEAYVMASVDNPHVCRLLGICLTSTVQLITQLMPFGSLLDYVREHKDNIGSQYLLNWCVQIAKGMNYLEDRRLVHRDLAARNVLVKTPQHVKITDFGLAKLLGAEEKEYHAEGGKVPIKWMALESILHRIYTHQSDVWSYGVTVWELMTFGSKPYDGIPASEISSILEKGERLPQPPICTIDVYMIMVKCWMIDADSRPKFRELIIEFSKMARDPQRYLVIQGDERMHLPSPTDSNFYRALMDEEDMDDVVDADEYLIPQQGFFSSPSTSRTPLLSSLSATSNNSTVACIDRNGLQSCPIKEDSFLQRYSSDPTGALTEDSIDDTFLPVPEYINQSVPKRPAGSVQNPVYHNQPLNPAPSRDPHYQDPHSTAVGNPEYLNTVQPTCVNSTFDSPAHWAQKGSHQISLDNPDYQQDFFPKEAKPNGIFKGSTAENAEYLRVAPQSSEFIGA
T1 sequence (P00533 with tags, fused parts or gaps DEL746-750): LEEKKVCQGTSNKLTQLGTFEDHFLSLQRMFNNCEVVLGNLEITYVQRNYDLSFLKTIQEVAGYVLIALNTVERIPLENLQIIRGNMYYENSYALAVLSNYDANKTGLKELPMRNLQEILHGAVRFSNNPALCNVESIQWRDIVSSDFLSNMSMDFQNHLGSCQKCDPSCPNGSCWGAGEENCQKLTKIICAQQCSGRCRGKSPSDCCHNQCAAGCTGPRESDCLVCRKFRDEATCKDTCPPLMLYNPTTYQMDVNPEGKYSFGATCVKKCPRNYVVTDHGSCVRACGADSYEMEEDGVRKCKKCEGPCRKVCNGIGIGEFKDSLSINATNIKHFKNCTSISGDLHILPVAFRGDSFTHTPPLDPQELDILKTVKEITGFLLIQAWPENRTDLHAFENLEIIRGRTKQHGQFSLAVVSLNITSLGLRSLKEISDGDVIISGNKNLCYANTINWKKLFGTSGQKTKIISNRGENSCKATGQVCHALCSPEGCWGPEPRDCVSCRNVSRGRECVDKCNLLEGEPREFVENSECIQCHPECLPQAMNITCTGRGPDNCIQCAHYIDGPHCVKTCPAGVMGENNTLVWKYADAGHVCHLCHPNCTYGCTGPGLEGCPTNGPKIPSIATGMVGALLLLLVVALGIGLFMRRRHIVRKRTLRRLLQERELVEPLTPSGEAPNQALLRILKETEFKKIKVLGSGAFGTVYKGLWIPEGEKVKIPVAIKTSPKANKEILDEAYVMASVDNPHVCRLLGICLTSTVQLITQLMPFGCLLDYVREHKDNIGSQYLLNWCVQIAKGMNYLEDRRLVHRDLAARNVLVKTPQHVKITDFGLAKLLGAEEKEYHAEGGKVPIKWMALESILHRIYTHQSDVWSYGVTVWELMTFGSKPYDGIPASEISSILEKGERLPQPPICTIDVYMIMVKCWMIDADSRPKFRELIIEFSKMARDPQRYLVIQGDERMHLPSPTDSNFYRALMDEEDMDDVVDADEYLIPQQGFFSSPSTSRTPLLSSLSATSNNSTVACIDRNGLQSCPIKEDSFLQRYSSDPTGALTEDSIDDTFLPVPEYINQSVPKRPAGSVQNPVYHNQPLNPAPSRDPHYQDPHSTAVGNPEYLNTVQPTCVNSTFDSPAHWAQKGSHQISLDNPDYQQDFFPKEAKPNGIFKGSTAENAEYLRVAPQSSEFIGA
Chain of EGFR (D746-750) (P00533 with tags, fused parts or gaps DEL746-750): as above
T2 sequence (P00533 25-1210): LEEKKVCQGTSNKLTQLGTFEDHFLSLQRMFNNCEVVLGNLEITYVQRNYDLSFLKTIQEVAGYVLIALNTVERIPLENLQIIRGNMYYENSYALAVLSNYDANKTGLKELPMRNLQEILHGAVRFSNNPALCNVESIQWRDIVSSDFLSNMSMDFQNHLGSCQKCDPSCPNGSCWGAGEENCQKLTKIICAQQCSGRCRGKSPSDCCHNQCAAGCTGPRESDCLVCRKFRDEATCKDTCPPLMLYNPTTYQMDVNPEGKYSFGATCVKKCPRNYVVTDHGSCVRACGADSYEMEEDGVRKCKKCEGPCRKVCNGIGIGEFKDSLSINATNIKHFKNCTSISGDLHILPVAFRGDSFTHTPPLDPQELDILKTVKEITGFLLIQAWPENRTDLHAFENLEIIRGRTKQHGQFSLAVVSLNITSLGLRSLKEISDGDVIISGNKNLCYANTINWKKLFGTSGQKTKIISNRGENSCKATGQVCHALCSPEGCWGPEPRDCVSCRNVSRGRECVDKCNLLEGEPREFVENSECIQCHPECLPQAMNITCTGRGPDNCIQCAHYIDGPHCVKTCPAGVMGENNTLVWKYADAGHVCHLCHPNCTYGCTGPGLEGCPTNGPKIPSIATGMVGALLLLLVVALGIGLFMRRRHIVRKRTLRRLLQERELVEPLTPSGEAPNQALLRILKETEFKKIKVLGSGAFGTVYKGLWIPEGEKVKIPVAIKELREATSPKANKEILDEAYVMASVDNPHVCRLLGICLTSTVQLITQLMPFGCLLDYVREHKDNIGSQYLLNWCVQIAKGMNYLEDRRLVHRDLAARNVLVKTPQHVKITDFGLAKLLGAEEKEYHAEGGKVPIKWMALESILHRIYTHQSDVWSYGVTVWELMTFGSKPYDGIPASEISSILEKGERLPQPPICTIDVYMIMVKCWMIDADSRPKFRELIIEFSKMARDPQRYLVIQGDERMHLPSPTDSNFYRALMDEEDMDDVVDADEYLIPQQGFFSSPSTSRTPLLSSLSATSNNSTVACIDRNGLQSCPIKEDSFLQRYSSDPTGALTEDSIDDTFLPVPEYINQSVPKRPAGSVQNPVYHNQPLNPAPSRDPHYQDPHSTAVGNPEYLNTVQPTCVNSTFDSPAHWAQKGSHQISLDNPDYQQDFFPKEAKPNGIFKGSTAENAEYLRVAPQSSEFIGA

SMILES | IC50 [1] [nM] | IC50 (EGFR (D746-750)) [nM] | IC50 [2] [nM] | IC50 [3] [nM] | IC50 (EGFR (D746-750/C797S)) [nM] | IC50 (EGFR (L858R/T790M/C797S)) [nM] | IC50 (HCC827 cells) [nM] | IC50 (EGFR (D770_N771insNPG)) [nM] | IC50 (PC-9 cells) [nM] | IC50 [4] [nM] | IC50 [5] [nM] | IC50 [6] [nM] | IC50 (NCI-H1975 cells) [nM]
CCOc1nn([C@@H](C)CO)c2c1/C=C/c1n[nH]c3c(C)nc(cc13)-c1cnn(C)c1O[C@@H](C)CN(C)C2 [Ex. 45, (2S)-2-[(10S,17E)-16-ethoxy-8,10,12,20-tetramethyl-2,8,10,11,12,13-hexahydro-14H-5,3-(azenometheno)tripyrazolo[3,4-f:3′,4′-j:4″,3″-n][1,4]oxazacyclopentadecin-14-yl]propan-1-ol] | 0.12 | 0.28 | 1.04 | 0.47 | 0.95 | 0.53 | 1.12 | 0.69 | 3.31 | 2.15 | 12.2 | 1.24 | 1.09
CCOc1nn(CCO)c2c1/C=C/c1n[nH]c3cnc(cc13)-c1c(C)nn(C)c1O[C@@H](C)CN(C)C2 [Ex. 44, 2-[(10S,17E)-16-ethoxy-6,8,10,12-tetramethyl-2,8,10,11,12,13-hexahydro-14H-5,3-(azenometheno)tripyrazolo[3,4-f:3′,4′-j:4″,3″-n][1,4]oxazacyclopentadecin-14-yl]ethan-1-ol] | 0.05 | 0.26 | 1.18 | 0.57 | 0.62 | 0.57 | 0.29 | 0.17 | 0.84 | 1.01 | 9.94 | 1.92 | 1.05
CCOc1nn(CCO)c2c1/C=C/c1n[nH]c3cnc(cc13)-c1c(CC)nn(C)c1O[C@@H](C)CN(CC)C2 [Ex. 74, 2-[(10S,17E)-16-ethoxy-6,12-diethyl-8,10-dimethyl-2,8,10,11,12,13-hexahydro-14H-5,3-(azenometheno)tripyrazolo[3,4-f:3′,4′-j:4″,3″-n][1,4]oxazacyclopentadecin-14-yl]ethan-1-ol] | 0.04 | 0.55 | 6.61 | 1.34 | 1.83 | 1.5 | 0.72 | 0.66 | 0.68 | 1.54 | 8.81 | 5.16 | 79.9
Cc1nn(C)c2c1-c1cc3c(n[nH]c3cn1)/C=C/c1c(C#N)nn([C@@H](C)CO)c1CN(C)C[C@H](C)O2 [Ex. 48, (10S,17E)-14-[(2S)-1-hydroxypropan-2-yl]-6,8,10,12-tetramethyl-2,10,11,12,13,14-hexahydro-8H-5,3-(azenometheno)tripyrazolo[3,4-f:3′,4′-j:4″,3″-n∥1,4]oxazacyclopentadecine-16-carbonitrile] | 0.16 | 0.18 | 17.1 | 1.21 | 0.63 | 0.37 | 2.08 | 0.23 | 17.8 | 3.14 | 37 | 6.12 | 55.6
CCN1Cc2c(c(OCC#N)nn2CCO)/C=C/c2n[nH]c3cnc(cc23)-c2c(C)nn(C)c2O[C@H](C)C1 [Ex. 36, {[(10R,17E)-12-ethyl-14-(2-hydroxyethyl)-6,8,10-trimethyl-2,10,11,12,13,14-hexahydro-8H-5,3-(azenometheno)tripyrazolo[3,4-f:3′,4′-j:4″,3″-n][1,4]oxazacyclopentadecin-16-yl]oxy}acetonitrile] | 0.47 | 0.1 | 2.13 | 1.97 | 0.29 | 0.13 |  | 0.14 |  |  |  |  | 
Cc1nn(CCO)c2c1/C=C/c1n[nH]c3cnc(cc13)-c1c(C)nn(C)c1O[C@@H](C)CN(C)C2 [Ex. 41, 2-[(10S,17E)-6,8,10,12,16-pentamethyl-2,8,10,11,12,13-hexahydro-14H-5,3-(azenometheno)tripyrazolo[3,4-f:3′,4′-j:4″,3″-n][1,4]oxazacyclopentadecin-14-yl]ethan-1-ol] | 0.16 | 0.08 | 13.8 | 3.74 | 0.23 | 0.23 |  | 0.08 |  |  |  |  | 
Cc1nc2cc3c(n[nH]c13)/C=C/c1c(OC(C)C)nn(CCO)c1CN(C)C[C@H](C)Oc1c-2cnn1C [Ex. 40, 2-[(10S,17E)-8,10,12,20-tetramethyl-16-[(propan-2-yl)oxy]-2,8,10,11,12,13-hexahydro-14H-5,3-(azenometheno)tripyrazolo[3,4-f:3′,4′-j:4″,3″-n][1,4]oxazacyclopentadecin-14-yl]ethan-1-ol] | 0.28 | 0.35 | 3.34 | 0.92 | 0.97 | 0.45 |  | 1.63 |  | 11.4 | 14.7 | 1.6 | 
CCOc1nn(C[C@H](C)O)c2c1/C=C/c1n[nH]c3cnc(cc13)-c1c(C)nn(C)c1O[C@@H](C)CN(C1CC1)C2 [Ex. 107, (2S)-1-[(10S,17E)-12-cyclopropyl-16-ethoxy-6,8,10-trimethyl-2,8,10,11,12,13-hexahydro-14H-5,3-(azenometheno)tripyrazolo[3,4-f:3′,4′-j:4″,3″-n][1,4]oxazacyclopentadecin-14-yl]propan-2-ol] | 0.49 |  | 4 | 3.55 |  |  | 2.12 |  | 10.6 | 4.41 | 5.13 | 7.07 | 55.2
Cc1nn(C)c2c1/C=C/c1n[nH]c3c(C)nc(cc13)-c1c(C)nn(C)c1O[C@@H](C)CN(C(C)C)C2 [Ex. 106, (10S,17E)-6,8,10,14,16,20-hexamethyl-12-(propan-2-yl)-2,10,11,12,13,14-hexahydro-8H-5,3-(azenometheno)tripyrazolo[3,4-f:3′,4′-j:4″,3″-n][1,4]oxazacyclopentadecine] | 1.37 |  | 4.75 | 3.41 |  |  | 2.18 |  | 14.6 | 9 | 10.2 | 3.03 | 7.92
Cc1nn(CCO)c2c1/C=C/c1n[nH]c3c(C)nc(cc13)-c1c(C)nn(C)c1O[C@@H](C)CN(C(C)C)C2 [Ex. 109, 2-[(10S,17E)-6,8,10,16,20-pentamethyl-12-(propan-2-yl)-2,8,10,11,12,13-hexahydro-14H-5,3-(azenometheno)tripyrazolo[3,4-f3′,4′-j:4″,3″-n][1,4]oxazacyclopentadecin-14-yl]ethan-1-ol] | 0.24 |  | 1.17 | 1.17 |  |  | 0.9 |  | 5.53 | 2.91 | 3.52 | 1.79 | 2.65
CCOc1nn(C[C@H](C)O)c2c1/C=C/c1n[nH]c3c(C)nc(cc13)-c1c(C)nn(C)c1O[C@@H](C)CN(C)C2 [Ex. 90, (2S)-1-[(10S,17E)-16-ethoxy-6,8,10,12,20-pentamethyl-2,8,10,11,12,13-hexahydro-14H-5,3-(azenometheno)tripyrazolo[3,4-f3′,4′-j:4″,3″-n][1,4]oxazacyclopentadecin-14-yl]propan-2-ol] | 0.06 |  | 0.61 | 0.48 |  |  | 0.58 |  | 2.37 | 1.26 | 8.44 | 1.1 | 0.97
